{
  "source": "patent US20060211725A1",
  "about": "“Use” (Astellas Pharma Inc., priority 2002, published 2006)",
  "assay_type_in_all_cases": "in vivo, rat",
  "key": {"[1]": {"system": "F344 kidney allograft in LEW recipient rats", "experiment": "Kidney allograft survival, treatment with brief tacrolimus (Example 4)", "conditions": "Tacrolimus 1 mg/kg PO, 0-9 day, alone", "experimental": "(§1) The rats and kidney transplantation methods described in Example 1 were used. Tacrolimus at dose of 1 mg/kg from day 0 to day 9 after transplantation, and the compound (I) at doses of 10 mg/kg and 15 mg/kg from day 28 today 60 after transplantation were administered orally to recipient rats. In this study LEW recipients were briefly treated with oral tacrolimus at 1 mg/kg/day for 10 days after transplantation to avoid acute rejection and slow chronic rejection that gradually destroys the F344 kidney graft, resulting in functional and histological changes similar to the chronic rejection in human. The isograft, untreated allograft and allograft treated with tacrolimus 1 mg/kg for 10 days alone served as control groups. Blood and urine samples were collected once a week from recipients with kidney grafts described in Example 1 for measuring their plasma creatinine and proteinuria. Plasma creatinine was tested by Sigma Creatinine Kit and proteinuria by Bio-Rad Protein assay."}, "[2]": {"system": "F344 kidney allograft in LEW recipient rats", "experiment": "Kidney allograft survival, combination with tacrolimus (Example 2)", "conditions": "Tacrolimus 1 mg/kg PO, 0-90 day, alone", "experimental": "The rats and kidney transplantation methods described in Example 1 were used. The compound (I) at dose of 3 mg/kg and tacrolimus at dose of 1 mg/kg, were administered orally to recipient rats daily for 90 days after transplantation. The isograft, untreated allograft, and allograft treated with tacrolimus 1 mg/kg for 90 days alone served as control groups."}, "[3]": {"system": "F344 kidney allograft in LEW recipient rats", "experiment": "Recipient kidney function, treatment with brief tacrolimus (Example 4)", "conditions": "brief dose of tacrolimus 1 mg/kg day 0-9 alone; allograft control week 7", "experimental": "as §1"}},
  "data": [
    {"compound": "C=CC[C@@H]1/C=C(\\C)C[C@H](C)C[C@H](OC)[C@H]2O[C@@](O)(C(=O)C(=O)N3CCCC[C@H]3C(=O)O[C@H](/C(C)=C/[C@@H]3CC[C@@H](O)[C@H](OC)C3)[C@H](C)[C@@H](O)CC1=O)[C@H](C)C[C@@H]2OC", "note": "[Tacrolimus, tacrolimus]", "values": [
      {"measurement": "Survival day", "setting": "[1]; n=5", "value": ">90", "unit": "days"},
      {"measurement": "Survival rate", "setting": "[1]; untreated allograft 40%", "value": 100, "unit": "%"},
      {"measurement": "Survival day", "setting": "[2]; n=4", "value": ">90", "unit": "days"},
      {"measurement": "Survival rate (90 days)", "setting": "[2]; untreated allograft 40%", "value": 100, "unit": "%"},
      {"measurement": "week post transplantation after which plasma creatinine increased rapidly", "setting": "[3]", "value": 8, "unit": "week"}
    ]}
  ]
}
